The text below walks through data of DBAASP.

In brackets after ≈: the same amount, converted by molar mass.

Among the test systems are Candida albicans; Staphylococcus aureus; Escherichia coli UB1005.
What all share (assay): ≥ marks a high value that may be exact or a test limit, other limits are often not marked, values filed in µg/mL are converted to µM
Test [1] relates to Enterococcus faecalis ATCC 29212.
Test [2] concerns Escherichia coli ATCC 25922.
Test [3] concerns Salmonella enterica subsp. enterica serovar Typhimurium ATCC 14028.
In test [4] the test system is Acinetobacter baumannii ATCC 19606.
For test [5], the system named is Staphylococcus aureus ATCC 29213.
For test [6], the system named is Pseudomonas aeruginosa ATCC 27853.
Test [7] relates to Staphylococcus aureus ATCC 25923.
Test [8] concerns Candida albicans ATCC 90028.
Test [9] concerns Staphylococcus epidermidis ATCC 12228.
For test [10], the system named is Pseudomonas aeruginosa PAO1.

For orientation: MIC means the lowest concentration found to suppress growth. As for `CC[C@H](C)[C@H](NC(=O)[C@H](CCCCN)NC(=O)CNC(=O)CNC(=O)[C@H](CC(C)C)NC(=O)[C@H](CC(N)=O)NC(=O)[C@H](C)NC(=O)[C@H](C)NC(=O)[C@@H](N)CCC(=O)O)C(=O)N[C@@H](CC(C)C)C(=O)N[C@@H](CCC(=O)O)C(=O)N[C@@H](CCC(=O)O)C(=O)N[C@@H](CCCCN)C(=O)N[C@@H](CCCCN)C(=O)N[C@@H](CC(C)C)C(=O)N[C@@H](CO)C(=O)N[C@@H](CCCN=C(N)N)C(=O)N[C@@H](CC(C)C)C(=O)N1CCC[C@H]1C(=O)N1CCC[C@H]1C(=O)N[C@@H](CO)C(=O)N[C@@H](Cc1cnc[nH]1)C(=O)N[C@@H](CC(C)C)C(=O)O` [EAANLGGKILEEKKLSRLPPSHL], the MIC in test [1], in test [2] and in [3] was > 200 µM throughout.

As to `CC[C@H](C)[C@H](NC(=O)[C@H](CCCCN)NC(=O)[C@H](CO)NC(=O)[C@H](CC(C)C)NC(=O)[C@H](CC(C)C)NC(=O)CNC(=O)[C@H](C)NC(=O)[C@@H](NC(=O)[C@H](C)NC(=O)CNC(=O)[C@@H](NC(=O)[C@@H](N)Cc1ccccc1)[C@@H](C)CC)C(C)C)C(=O)N[C@@H](Cc1ccccc1)C(N)=O` [FIGAVAGLLSKIF], the MIC was > 29.9 µM in [4] and 37.4 µM (≈ 50 µg/mL) in test [5].

For `CC(C)C[C@H](NC(=O)[C@H](C)NC(=O)[C@H](CCCCN)NC(=O)[C@H](C)NC(=O)[C@H](CC(C)C)NC(=O)[C@H](C)NC(=O)[C@H](CCCCN)NC(=O)[C@H](C)NC(=O)[C@H](C)NC(=O)[C@H](C)NC(=O)[C@H](CCCCN)NC(=O)[C@H](C)NC(=O)[C@@H](NC(=O)[C@H](C)NC(=O)[C@H](CCCCN)NC(=O)[C@H](C)NC(=O)[C@H](CC(C)C)NC(=O)[C@@H](N)Cc1ccccc1)C(C)C)C(=O)O` [FLAKAVAKAAAKALAKAL], in the test on Candida albicans, the MIC was determined as 82 µM (≈ 144 µg/mL).

On to `CC(C)C[C@H](NC(=O)[C@H](CC(C)C)NC(=O)[C@H](CCCCN)NC(=O)[C@H](CCCCN)NC(=O)[C@H](CC(C)C)NC(=O)CNC(=O)[C@H](CCCCN)NC(=O)[C@H](CC(C)C)NC(=O)[C@@H](N)Cc1ccccc1)C(N)=O` [FLKGLKKLL], for which the MIC in test [4] was > 121 µM; in [2], 121 µM (≈ 128 µg/mL); in test [6] it was 7.55 µM (≈ 7.99 µg/mL); in test [7], 121 µM (≈ 128 µg/mL).

`CSCC[C@H](NC(=O)[C@H](CCCCN)NC(=O)[C@H](CC(C)C)NC(=O)[C@@H](N)Cc1ccccc1)C(=O)N[C@@H](CC(C)C)C(=O)N[C@@H](CCCCN)C(=O)N[C@@H](CCCCN)C(=O)N[C@@H](CC(C)C)C(=O)N[C@@H](CC(C)C)C(N)=O` [FLKMLKKLL]: the MIC was 14.1 µM (≈ 16 µg/mL) in test [4], 28.2 µM (≈ 32 µg/mL) in test [2], 7.06 µM (≈ 7.99 µg/mL) in test [6] and 14.1 µM (≈ 16 µg/mL) in test [7].

As to `CC[C@H](C)[C@@H]1NC(=O)[C@H](Cc2ccccc2)NC(=O)[C@@H](NC(=O)[C@H](Cc2ccccc2)NC(=O)[C@@H](NC(=O)[C@H](CCCCN)NC(=O)[C@@H]2CCCN2C(=O)[C@H](CC(C)C)NC(=O)[C@@H](NC(=O)[C@H](CCCCN)NC(=O)[C@H](C)NC(=O)[C@H](C)NC(=O)[C@@H](NC(=O)[C@H](CO)NC(=O)[C@H](C)NC(=O)[C@@H](NC(=O)[C@@H](NC(=O)[C@@H]2CCCN2C(=O)[C@H](CC(C)C)NC(=O)[C@@H](N)Cc2ccccc2)C(C)C)[C@@H](C)CC)C(C)C)C(C)C)C(C)C)CSSC[C@@H](C(=O)O)NC(=O)[C@H](CCCCN)NC(=O)[C@H](CCCCN)NC(=O)[C@H]([C@@H](C)O)NC1=O` [FLPVIASVAAKVLPKVFCFITKKC], the MIC in test [8] turned out to be 3 µM (≈ 7.86 µg/mL); in [2], 50 µM (≈ 131 µg/mL); in test [7], 1.5 µM (≈ 3.93 µg/mL).

On to `CC[C@H](C)[C@H](NC(=O)CN)C(=O)N[C@@H](CCCCN)C(=O)N[C@@H](CCCCN)C(=O)N[C@@H](Cc1c[nH]c2ccccc12)C(=O)N[C@@H](CC(C)C)C(=O)N[C@@H](Cc1cnc[nH]1)C(=O)N[C@@H](CO)C(=O)N1CCC[C@H]1C(=O)N[C@@H](CCCCN)C(=O)N[C@@H](CCCCN)C(=O)N[C@@H](Cc1ccccc1)C(=O)N1CCC[C@H]1C(=O)N[C@@H](CCCCN)C(=O)N[C@@H](CCCCN)C(=O)N[C@@H](Cc1ccccc1)C(=O)N[C@H](C(=O)N[C@@H](CCCCN)C(=O)N[C@@H](CCCCN)C(=O)N[C@H](C(=O)N[C@@H](CCSC)C(=O)N[C@@H](CC(N)=O)C(=O)N[C@@H](CO)C(N)=O)[C@@H](C)CC)C(C)C` [GIKKWLHSPKKFPKKFVKKIMNS], for which the MIC in test [2] came out at 10 µM (≈ 27.7 µg/mL); in [9] it was 2.5 µM (≈ 6.92 µg/mL).

For the molecule `CC[C@H](C)[C@H](NC(=O)[C@H](CCCCN)NC(=O)[C@H](CC(=O)O)NC(=O)[C@H](CC(C)C)NC(=O)[C@@H](NC(=O)[C@H](CC(N)=O)NC(=O)[C@@H](NC(=O)[C@H](Cc1ccccc1)NC(=O)[C@H](CC(C)C)NC(=O)[C@H](CCCCN)NC(=O)[C@H](CCCCN)NC(=O)CN)C(C)C)C(C)C)C(=O)N[C@@H](CCCN=C(N)N)C(=O)N[C@H]1CSSC[C@@H](C(=O)O)NC(=O)CNC(=O)CNC(=O)[C@H](C)NC(=O)[C@H](C(C)C)NC(=O)[C@H](CCCCN)NC1=O` [GKKLFVNVLDKIRCKVAGGC], the MIC in test [8] was ≥ 100 µM.

Turning to `CC[C@H](C)[C@H](NC(=O)[C@H](CCCCN)NC(=O)CNC(=O)[C@@H](NC(=O)[C@@H](NC(=O)[C@H](CO)NC(=O)CNC(=O)[C@H](C)NC(=O)[C@H](CCCCN)NC(=O)[C@H](CO)NC(=O)[C@H](C)NC(=O)[C@H](CCSC)NC(=O)CN)[C@@H](C)CC)C(C)C)C(=O)N[C@@H](C)C(=O)N[C@@H](CCCCN)C(=O)N[C@H](C(=O)N[C@@H](C)C(=O)N[C@@H](CC(C)C)C(=O)NCC(=O)N[C@@H](C)C(=O)N[C@@H](CC(C)C)C(N)=O)[C@@H](C)CC` [GMASKAGSIVGKIAKIALGAL], the MIC turned out to be 25 µM (≈ 48.9 µg/mL) in [8], 25 µM (≈ 48.9 µg/mL) in test [2] and 50 µM (≈ 97.8 µg/mL) in test [7].

As to `CC[C@H](C)[C@H](NC(=O)[C@H](CCCN=C(N)N)NC(=O)[C@@H](N)CCCCN)C(=O)N[C@@H](C)C(=O)N[C@@H](CCC(N)=O)C(=O)N[C@@H](CCCN=C(N)N)C(=O)N[C@H](C(=O)N[C@@H](CCCCN)C(=O)N[C@@H](C)C(=O)N[C@@H](Cc1ccccc1)C(=O)N[C@@H](CC(C)C)C(=O)N[C@@H](CCCN=C(N)N)C(=O)O)[C@@H](C)CC` [KRIAQRIKAFLR], the MIC in [8] is 10 µM (≈ 15 µg/mL); in test [2], 2.5 µM (≈ 3.75 µg/mL); in test [6] it was 5 µM (≈ 7.5 µg/mL); in [5] it was 20 µM (≈ 30 µg/mL).

Consider `CC[C@H](C)[C@H](NC(=O)[C@H](CCCN=C(N)N)NC(=O)[C@@H](N)CCCCN)C(=O)N[C@H](C(=O)N[C@@H](CCC(N)=O)C(=O)N[C@@H](CCCN=C(N)N)C(=O)N[C@@H](CCCCN)C(=O)N[C@@H](CCCCN)C(=O)N[C@@H](CC(=O)O)C(=O)N[C@@H](CCCCN)C(=O)N[C@@H](CCCCN)C(=O)N[C@@H](CCCN=C(N)N)C(=O)O)C(C)C` [KRIVQRKKDKKR], for which the MIC in test [8] is ≥ 40 µM; in test [2], 20 µM (≈ 31.7 µg/mL); in test [6], 40 µM (≈ 63.3 µg/mL); in [5], 40 µM (≈ 63.3 µg/mL).

On to `CC[C@H](C)[C@H](NC(=O)[C@H](Cc1ccccc1)NC(=O)[C@@H]1CCCN1C(=O)[C@@H](NC(=O)[C@@H](N)CC(C)C)C(C)C)C(=O)NCC(=O)N[C@@H](CCCN=C(N)N)C(=O)N[C@H](C(=O)N[C@@H](CC(C)C)C(=O)NCC(=O)NCC(=O)N[C@@H](CC(C)C)C(=O)N[C@@H](CC(C)C)C(=O)N[C@@H](C)C(=O)N[C@@H](CCCN=C(N)N)C(=O)N[C@@H](Cc1ccccc1)C(N)=O)[C@@H](C)O` [LVPFIGRTLGGLLARF], for which the MIC in test [4] is > 64 µM; in [1], > 64 µM; in [2], > 64 µM; in [5], 16 µM (≈ 27.7 µg/mL); against Staphylococcus aureus, 64 µM (≈ 111 µg/mL).

As to `CC(C)C[C@H](NC(=O)[C@H](Cc1ccc(O)cc1)NC(=O)[C@@H]1CCCN1C(=O)[C@@H]1CCCN1C(=O)[C@H](CCCCN)NC(=O)[C@@H]1CCCN1C(=O)[C@@H](N)C(C)C)C(=O)N1CCC[C@H]1C(=O)N[C@@H](CCCN=C(N)N)C(=O)N1CCC[C@H]1C(=O)N[C@@H](CCCN=C(N)N)C(=O)N1CCC[C@H]1C(=O)N1CCC[C@H]1C(=O)N[C@@H](CCCN=C(N)N)C(=O)N[C@@H](CCCN=C(N)N)C(=O)N[C@@H](CCCCN)C(=O)N[C@@H](Cc1ccc(O)cc1)C(=O)N[C@@H](CC(N)=O)C(=O)N[C@@H](Cc1cnc[nH]1)C(N)=O` [VPKPPYLPRPRPPRRKYNH], the MIC with Escherichia coli UB1005 turned out to be 2.11 µM (≈ 5 µg/mL); in test [10], 27 µM (≈ 64 µg/mL); in test [7] it was 3.38 µM (≈ 8 µg/mL).

For the molecule `CC(C)C[C@H](NC(=O)[C@H](CC(C)C)NC(=O)[C@H](CCCCN)NC(=O)[C@@H](N)Cc1c[nH]c2ccccc12)C(=O)N[C@@H](CO)C(=O)N[C@@H](CCCCN)C(=O)N[C@@H](C)C(=O)N[C@@H](CCC(N)=O)C(=O)N[C@@H](CCC(=O)O)C(=O)N[C@@H](CCCCN)C(=O)N[C@@H](Cc1ccccc1)C(=O)NCC(=O)N[C@@H](CCCCN)C(=O)N[C@@H](CC(N)=O)C(=O)N[C@@H](CCCCN)C(=O)N[C@@H](CO)C(=O)N[C@@H](CCCN=C(N)N)C(=O)N[C@@H](CS)C(N)=O` [WKLLSKAQEKFGKNKSRC], the minimal inhibitory concentration (MIC) in test [2] is 62 µM (≈ 133 µg/mL); in [6], 62 µM (≈ 133 µg/mL); in test [7], 62 µM (≈ 133 µg/mL); in test [9], 7.69 µM (≈ 16.5 µg/mL).
